Experimental findings from ChEMBL document CHEMBL1201862, “PubChem BioAssay data set” (2004) are described below.

The structures appear in SMILES notation.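 The compound was tested at five concentrations on cells cultured in 96-well plates, with a 48-hour exposure period. GI50 is the concentration that inhibits growth by half.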 The source made the active and inactive calls. No stated cut-off is given here; in the data, active = GI50 up to about 1.1 µM and inactive = higher.

Some test systems named below: NCI-H522; NCI-H226; SF-295; SN12C; CAKI-1; BT-549; HOP-92; SR; EKVX; HOP-62; OVCAR-4; SF-539; SNB-19; OVCAR-5; NCI-H23; SK-MEL-5; UACC-257; MDA-MB-435; HCC 2998.
Common to all, as to assay: growth of human tumour cells (NCI), 48 h

For `Cc1cc(C)nc(NC(=O)COc2ccc(Cl)cc2)c1`, the GI50 with NCI-H522 was 84.5 µM (inactive); with NCI-H226, > 100 µM (inactive); with SF-295 it was 84.9 µM (inactive); in the experiment on SN12C, > 100 µM (inactive); in the experiment on CAKI-1, > 100 µM (inactive); in the experiment on BT-549 it was > 100 µM (inactive). Moreover, the GI50 with HOP-92, with SR, in the experiment with EKVX, with HOP-62, in the experiment on OVCAR-4 and in the experiment on SF-539 was > 100 µM (inactive) each time. Further, the GI50 with SNB-19, in the experiment on OVCAR-5, in the experiment on NCI-H23, in the experiment on SK-MEL-5, in the experiment with UACC-257 and in the experiment with MDA-MB-435 was > 100 µM (inactive) in each case.

As for `N#Cc1c(N)n(C2OC(CO)C(O)C2O)c2ncnc(N)c12` (centres undefined), the GI50 in the experiment with NCI-H522 was 0.135 µM (active); in the experiment on NCI-H226 it was 0.0684 µM (active); with SF-295, 0.0711 µM (active); in the experiment on SN12C it was 0.0186 µM (active); with CAKI-1 it was 0.0463 µM (active); in the experiment with BT-549, 0.152 µM (active). Moreover, the GI50 was 0.136 µM (active) in the experiment on HOP-92; 0.0147 µM (active) in the experiment on SR; 0.135 µM (active) in the experiment with EKVX; 0.0335 µM (active) in the experiment on HOP-62; 0.049 µM (active) in the experiment with OVCAR-4; 0.118 µM (active) in the experiment on SF-539. In addition, the GI50 was 0.129 µM (active) with SNB-19; 0.0541 µM (active) in the experiment on OVCAR-5; 0.0292 µM (active) with NCI-H23; 0.0653 µM (active) in the experiment with SK-MEL-5; 0.091 µM (active) with UACC-257; 0.0212 µM (active) in the experiment on MDA-MB-435.

`C[n+]1c2ccccc2c(N=[N+]=[N-])c2ccccc21`: the GI50 was 8.87 µM (inactive) in the experiment on NCI-H522; 6.27 µM (inactive) with NCI-H226; > 10 µM (inactive) with SF-295; 7.03 µM (inactive) in the experiment on SN12C; > 10 µM (inactive) with CAKI-1; > 10 µM (inactive) with HCC 2998. The GI50 with BT-549 is > 10 µM (inactive); in the experiment on SR, 4.13 µM (inactive); with EKVX, 8.32 µM (inactive); in the experiment with HOP-62 it was > 10 µM (inactive); in the experiment with OVCAR-4, 4.26 µM (inactive); in the experiment on SF-539 it was 4.83 µM (inactive). Besides, the GI50 with SNB-19 was 9.18 µM (inactive); in the experiment with OVCAR-5, > 10 µM (inactive); in the experiment on NCI-H23, 4.22 µM (inactive); with SK-MEL-5, > 10 µM (inactive); with UACC-257 it was > 10 µM (inactive); in the experiment with MDA-MB-435, 7.14 µM (inactive).

As to `COc1ccc(OC)c(/N=C/c2cc(OC)c(OC)c(OC)c2)c1`, the GI50 in the experiment on NCI-H522 was 22.9 µM (inactive); in the experiment on NCI-H226, > 50.2 µM (inactive); with SF-295, > 100 µM (inactive); in the experiment with SN12C it was > 100 µM (inactive); with CAKI-1, 80.5 µM (inactive); in the experiment on HCC 2998, > 100 µM (inactive). Moreover, the GI50 is > 78.9 µM (inactive) in the experiment on BT-549; 32.5 µM (inactive) in the experiment on SR; > 52.6 µM (inactive) in the experiment with EKVX; > 100 µM (inactive) with HOP-62; > 85.1 µM (inactive) with OVCAR-4; > 100 µM (inactive) in the experiment on SF-539. Moreover, the GI50 is > 100 µM (inactive) in the experiment on SNB-19; > 100 µM (inactive) in the experiment with OVCAR-5; > 100 µM (inactive) in the experiment on NCI-H23; > 100 µM (inactive) in the experiment with SK-MEL-5; > 100 µM (inactive) in the experiment with UACC-257; 28 µM (inactive) with MDA-MB-435.

Consider `Cc1c(C#N)c(N)n(C2OCC(O)C(O)C2O)c(=S)c1C#N` (centres undefined), for which the GI50 in the experiment with NCI-H522, with NCI-H226, in the experiment with SF-295, in the experiment with SN12C, in the experiment on CAKI-1 and with HCC 2998 was > 100 µM (inactive) throughout. The GI50 with BT-549, with SR, in the experiment with HOP-62, in the experiment with SF-539, in the experiment on SNB-19 and in the experiment with OVCAR-5 was > 100 µM (inactive) in each case. Moreover, the GI50 with NCI-H23, with SK-MEL-5, in the experiment with UACC-257 and with MDA-MB-435 was > 100 µM (inactive) each time.

Take `Cc1nc(-c2ccccc2)c(C)n2c1nc1ccccc12`: the GI50 was 40.5 µM (inactive) in the experiment on NCI-H226; 37.6 µM (inactive) with SF-295; 42.9 µM (inactive) with SN12C; 34.7 µM (inactive) in the experiment on CAKI-1; 23 µM (inactive) in the experiment on BT-549; 19 µM (inactive) in the experiment on HOP-92. Moreover, the GI50 in the experiment on SR was 19.1 µM (inactive); in the experiment with EKVX, 37.2 µM (inactive); with HOP-62, 32.4 µM (inactive); in the experiment on OVCAR-4, 17.2 µM (inactive); with SF-539, 35.6 µM (inactive); in the experiment with SNB-19, 35.6 µM (inactive). Further, the GI50 was 33.2 µM (inactive) in the experiment on OVCAR-5, 15.4 µM (inactive) in the experiment with NCI-H23, 38.1 µM (inactive) in the experiment on UACC-257 and 24.4 µM (inactive) in the experiment on MDA-MB-435.

On to `COc1cc(C(c2cccc3ccccc23)N2C(=O)CCC2C(=O)O)cc(OC)c1OC` (centres undefined), for which the GI50 with NCI-H522, in the experiment with NCI-H226, with SF-295, with SN12C, in the experiment on CAKI-1 and in the experiment with BT-549 was > 100 µM (inactive) in each case. The GI50 in the experiment on HOP-92, in the experiment on SR, in the experiment with EKVX, in the experiment with HOP-62, in the experiment with OVCAR-4 and with SF-539 was > 100 µM (inactive) in each case. For the same molecule, the GI50 with SNB-19, in the experiment with OVCAR-5, in the experiment with NCI-H23, with SK-MEL-5, with UACC-257 and in the experiment on MDA-MB-435 was > 100 µM (inactive) each time.

As to `CSc1c(CC(=O)O)n(Cc2ccccc2)c2ccccc12`, the GI50 is 89.3 µM (inactive) in the experiment on NCI-H522; 79.8 µM (inactive) with SF-295; > 100 µM (inactive) with SN12C; > 100 µM (inactive) with CAKI-1; > 100 µM (inactive) with BT-549; > 100 µM (inactive) in the experiment with HOP-92. Besides, the GI50 is > 100 µM (inactive) in the experiment with SR; 74.5 µM (inactive) with EKVX; > 100 µM (inactive) with HOP-62; 61.7 µM (inactive) in the experiment on OVCAR-4; > 100 µM (inactive) in the experiment on SF-539; > 100 µM (inactive) with SNB-19. Moreover, the GI50 with OVCAR-5, in the experiment on NCI-H23, in the experiment with SK-MEL-5, in the experiment with UACC-257 and in the experiment with MDA-MB-435 was > 100 µM (inactive) in each case.

Turning to `C=C(CO)[C@H]1Oc2ccc(C(C)=O)cc2[C@@H]1O`, the GI50 with NCI-H522 was 88.7 µM (inactive); in the experiment on NCI-H226 it was > 100 µM (inactive); in the experiment on SF-295 it was > 100 µM (inactive); with SN12C it was > 100 µM (inactive); with CAKI-1, > 100 µM (inactive); in the experiment with HCC 2998, > 100 µM (inactive). The GI50 in the experiment with BT-549 is 33.2 µM (inactive); with SR, > 100 µM (inactive); in the experiment with EKVX, > 100 µM (inactive); in the experiment with HOP-62, > 100 µM (inactive); in the experiment with OVCAR-4, > 100 µM (inactive); in the experiment with SF-539, > 100 µM (inactive). In addition, the GI50 is > 100 µM (inactive) in the experiment on SNB-19; > 100 µM (inactive) in the experiment on OVCAR-5; > 100 µM (inactive) in the experiment with NCI-H23; > 100 µM (inactive) with SK-MEL-5; > 100 µM (inactive) in the experiment on UACC-257; 36.8 µM (inactive) in the experiment with MDA-MB-435.

As for `NC(=O)C1CCCNC1` (centres undefined), the GI50 with NCI-H522, in the experiment on NCI-H226, in the experiment with SF-295, in the experiment on SN12C, in the experiment on CAKI-1 and with BT-549 was > 100 µM (inactive) throughout. In addition, the GI50 in the experiment on HOP-92, in the experiment on SR, in the experiment with EKVX, in the experiment with HOP-62, in the experiment with OVCAR-4 and in the experiment with SF-539 was > 100 µM (inactive) each time. Further, the GI50 with SNB-19, in the experiment on OVCAR-5, with NCI-H23, with SK-MEL-5 and in the experiment on MDA-MB-435 was > 100 µM (inactive) throughout.

As to `CCSc1nc(-c2cccs2)nc2ccc(I)cc12`, the GI50 in the experiment on NCI-H522, in the experiment on NCI-H226, in the experiment with SF-295, in the experiment on SN12C, in the experiment on CAKI-1 and in the experiment on HCC 2998 was > 100 µM (inactive) throughout. Also, the GI50 in the experiment on BT-549 was > 100 µM (inactive); in the experiment on SR, > 100 µM (inactive); in the experiment with EKVX, 46.9 µM (inactive); in the experiment on HOP-62 it was > 100 µM (inactive); in the experiment with OVCAR-4, > 100 µM (inactive); in the experiment on SF-539, > 100 µM (inactive). Moreover, the GI50 with SNB-19, in the experiment with OVCAR-5, in the experiment with NCI-H23, in the experiment with SK-MEL-5, with UACC-257 and in the experiment with MDA-MB-435 was > 100 µM (inactive) each time.

Take `COc1ccc(C/C=C(\C)CCO)cc1`: the GI50 in the experiment with NCI-H522 was > 100 µM (inactive); in the experiment with SF-295 it was > 100 µM (inactive); with SN12C it was > 100 µM (inactive); in the experiment with CAKI-1, 38.5 µM (inactive); in the experiment on BT-549, > 100 µM (inactive); with HOP-92, > 100 µM (inactive). Moreover, the GI50 with SR, in the experiment on EKVX, in the experiment with HOP-62, with OVCAR-4, in the experiment with SF-539 and in the experiment on SNB-19 was > 100 µM (inactive) in each case. The GI50 with OVCAR-5, with NCI-H23, in the experiment with SK-MEL-5, in the experiment on UACC-257 and with MDA-MB-435 was > 100 µM (inactive) throughout.
